According to US20210213006A1, “METHODS OF TREATING NEURODEGENERATIVE DISEASES” (Seal Rock Therapeutics, Inc., priority 2018, published 2021):

Experiments:
ASK1 = target: T1, ASK1 (Homo sapiens, UniProt Q99683); assay: ASK1 Kinase Assay (Promega ASK1 Kinase Enzyme System, ADP-Glo); type: biochemical; conditions: enzyme 50 nM, Myelin basic protein 1 μg/ml, ATP 10 μM
T1 construct: purchased Promega V3881
Protocol: ASK1 Kinase Assay. The ASK1 enzymatic assay was run following Promega ASK1 Kinase Enzyme System (Cat #V3881). The kit provides the protocol, enzymes and all reagents necessary to run an assay.
Firstly, the compounds, enzyme, substrate and ATP were diluted in provided assay buffer. The final concentration of the enzyme was 50 nM, substrate (Myelin basic protein) 1μg/ml and ATP 10 μM. The compound and the enzyme were pre-incubated in a 384 well white solid bottom plate (Greiner, Cat #784075) for 10 minutes. After incubation, the substrate and ATP were added and incubated for further 60 minutes. After 60 minutes, ADP-gloTM was added and plate was incubated for another 40 minutes. After 40 minutes, Kinase Detection Reagent was added and the plate was incubated for 45 minutes. After 45 minutes, plate was read on Perkin Elmer EnVision using luminescence read (0.5 seconds/well).

[1] = target: T2, recombinant human full-length DYRK1A protein (Homo sapiens, UniProt Q13627); assay: DYRK1A Kinase Assay (microfluidics detection); type: biochemical; conditions: enzyme 0.01 nM, ATP 20 μM, DYRKtide peptide 1 μM, 3 h
T2 construct: recombinant human full-length DYRK1A protein; GST; host or cells: insect cells
Protocol: The DYRK1A kinase assay was performed using recombinant human full-length DYRK1A protein (GST-tagged, expressed in insect cells), in a 12-concentration IC50 format with singlicate wells (12 pt IC50), using microfluidics detection technology. Kinase reactions were assembled in 384 well plates (Greiner) in a total volume of 20 uL as follows: kinase protein was pre-diluted in assay buffer comprising: 100 mM HEPES, pH 7.5, 0.1% BSA, 0.01% Triton X-100, 1mM DTT, 5mM MgCl2 and dispensed into 384 well plate (10 μL per well). All compounds and reference standards were serially pre-diluted in DMSO and added to the protein samples by acoustic dispensing (Labcyte Echo). DMSO concentration was equalized to 1% in all samples. Control samples (0%-inhibition in the absence of inhibitor, DMSO only) and 100%-inhibition (in the absence of enzyme) are assembled in replicates of four and used to calculate the %-inhibition in the presence of compounds. Reactions were initiated by addition of […] of FAM-labeled DYRKtide peptide substrate and ATP prepared in the same assay buffer. Final concentrations of enzyme, ATP and substrate peptide were 0.01 nM, 20 μM and 1 μM, respectively. The kinase reactions are allowed to proceed for 3 h at room temperature. Following incubation, the reactions were quenched by addition of 50 μL of termination buffer (100 mM HEPES, pH7.5, 0.01% Triton X-100, 50 mM EDTA). Terminated plates are analyzed on a microfluidic electrophoresis instrument (Caliper LabChip® 3000, Caliper Life Sciences/Perkin Elmer), enabling electrophoretic separation and detection of product and substrate. A change in the relative intensity of the peptide substrate and phosphorylated product was the parameter measured. Activity in each test sample was determined as the product to sum ratio (PSR): P/(S+P), where P is the peak height of the product, and S is the peak height of the substrate. Percent inhibition (Pinh) was determined using the following equation: Pinh=(PSR0% inh—PSR compound)/(PSR0% inh—PSR100% inh)*100, in which: PSR compound is the product/sum ratio in the presence of compound, PSR0% inh is the product/sum ratio in the absence of compound and the PSR100% inh is the product/sum ratio in the absence of the enzyme. The compound IC50 (50%-inhibition) was determined by the %-inh data (Pinh versus compound concentration) fitted by a 4-parameter sigmoid dose-response model using XLfit software (IDBS).

T1 sequence (Q99683 649-946 limits assumed): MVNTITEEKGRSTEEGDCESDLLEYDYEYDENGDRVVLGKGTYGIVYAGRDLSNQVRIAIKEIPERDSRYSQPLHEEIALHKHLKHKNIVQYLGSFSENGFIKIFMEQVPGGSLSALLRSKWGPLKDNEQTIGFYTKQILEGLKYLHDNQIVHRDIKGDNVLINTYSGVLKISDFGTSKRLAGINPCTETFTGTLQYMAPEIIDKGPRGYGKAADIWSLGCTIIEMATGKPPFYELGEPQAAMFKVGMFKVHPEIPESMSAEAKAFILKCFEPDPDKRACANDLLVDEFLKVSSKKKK

Compound | IC50 (ASK1) [nM] | IC50 [1] [nM]
O=C1c2sccc2CN1c1cccc(-c2nncn2C2CC2)n1 [Compound 90, 5-(6-(4-Cyclopropyl-4H-1,2,4-triazol-3-yl)pyridin-2-yl)-4,5-dihydro-6H-thieno[2,3-c]pyrrol-6-one] | < 200 | 200 to 1000
CC(=O)c1ccccc1-c1cc2c(s1)C(=O)N(c1cccc(-c3nncn3C3CC3)n1)C2 [Compound 91, 2-(2-Acetylphenyl)-5-(6-(4-cyclopropyl-4H-1,2,4-triazol-3-yl)pyridin-2-yl)-4,5-dihydro-6H-thieno[2,3-c]pyrrol-6-one] | 200 to 1000 | 200 to 1000
O=C1c2sc(C3CCOCC3)cc2CN1c1cccc(-c2nncn2C2CC2)n1 [Compound 93, 5-(6-(4-cyclopropyl-4H-1,2,4-triazol-3-yl)pyridin-2-yl)-2-(tetrahydro-2H-pyran-4-yl)-4,5-dihydro-6H-thieno[2,3-c]pyrrol-6-one] | 200 to 1000 | < 200
O=C1c2scc(-c3ccccc3)c2CN1c1cccc(-c2nncn2C2CC2)n1 [Compound 94, 5-(6-(4-cyclopropyl-4H-1,2,4-triazol-3-yl)pyridin-2-yl)-3-phenyl-4,5-dihydro-6H-thieno[2,3-c]pyrrol-6-one] | 200 to 1000 | 1000 to 10000
O=C1c2sc3ccccc3c2CN1c1cccc(-c2nncn2C2CC2)n1 [Compound 95, 2-(6-(4-cyclopropyl-4H-1,2,4-triazol-3-yl)pyridin-2-yl)-1,2-dihydro-3H-benzo[4,5]thieno[2,3-c]pyrrol-3-one] | 200 to 1000 | 1000 to 10000
Cc1cc2c(s1)C(=O)N(c1cccc(-c3nncn3C3CC3)n1)C2 [Compound 96, 5-(6-(4-cyclopropyl-4H-1,2,4-triazol-3-yl)pyridin-2-yl)-2-methyl-4,5-dihydro-6H-thieno[2,3-c]pyrrol-6-one] | < 200 | 200 to 1000
CCc1cc2c(s1)C(=O)N(c1cccc(-c3nncn3C3CC3)n1)C2 [Compound 97, 5-(6-(4-cyclopropyl-4H-1,2,4-triazol-3-yl)pyridin-2-yl)-2-ethyl-4,5-dihydro-6H-thieno[2,3-c]pyrrol-6-one] | 200 to 1000 | < 200
O=C1c2scc(C3CCOCC3)c2CN1c1cccc(-c2nncn2C2CC2)n1 [Compound 98, 5-(6-(4-cyclopropyl-4H-1,2,4-triazol-3-yl)pyridin-2-yl)-3-(tetrahydro-2H-pyran-4-yl)-4,5-dihydro-6H-thieno[2,3-c]pyrrol-6-one] | 1000 to 10000 | 1000 to 10000
Cc1csc2c1CN(c1cccc(-c3nncn3C3CC3)n1)C2=O [Compound 99, 5-(6-(4-cyclopropyl-4H-1,2,4-triazol-3-yl)pyridin-2-yl)-3-methyl-4,5-dihydro-6H-thieno[2,3-c]pyrrol-6-one] | 200 to 1000 | 1000 to 10000
O=C1c2scc(Br)c2CN1c1cccc(-c2nncn2C2CC2)n1 [Compound 100, 3-bromo-5-(6-(4-cyclopropyl-4H-1,2,4-triazol-3-yl)pyridin-2-yl)-4,5-dihydro-6H-thieno[2,3-c]pyrrol-6-one] | 200 to 1000 | 1000 to 10000
CC(C)CNc1csc2c1CN(c1cccc(-c3nncn3C3CC3)n1)C2=O [Compound 101, 5-(6-(4-cyclopropyl-4H-1,2,4-triazol-3-yl)pyridin-2-yl)-3-(isobutylamino)-4,5-dihydro-6H-thieno[2,3-c] pyrrol-6-one] | – | 1000 to 10000
COc1cc2c(s1)C(=O)N(c1cccc(-c3nncn3C3CC3)n1)C2 [Compound 102, 5-(6-(4-cyclopropyl-4H-1,2,4-triazol-3-yl)pyridin-2-yl)-2-methoxy-4,5-dihydro-6H-thieno[2,3-c]pyrrol-6-one] | < 200 | 200 to 1000
CC(C)n1cnnc1-c1cccc(N2Cc3ccsc3C2=O)n1 [Compound 103, 5-(6-(4-isopropyl-4H-1,2,4-triazol-3-yl)pyridin-2-yl)-4,5-dihydro-6H-thieno[2,3-c]pyrrol-6-one] | < 200 | < 200
CN(C)c1cc2c(s1)C(=O)N(c1cccc(-c3nncn3C3CC3)n1)C2 [Compound 104, 5-(6-(4-cyclopropyl-4H-1,2,4-triazol-3-yl)pyridin-2-yl)-2-(dimethylamino)-4,5-dihydro-6H-thieno[2,3-c] pyrrol-6-one] | 200 to 1000 | 200 to 1000
N-(3-(5-(6-(4-Cyclopropyl-4H-1,2,4-triazol-3-yl)pyridin-2-yl)-6-oxo-5,6-dihydro-4H-thieno[2,3-c]pyrrol-2-yl)phenypacetamide [Compound 92] | 200 to 1000 | < 200
